For this test, the target named is T1, Tumor necrosis factor receptor superfamily member 1A (Homo sapiens, UniProt P19438).
T1 sequence (P19438 whole entry): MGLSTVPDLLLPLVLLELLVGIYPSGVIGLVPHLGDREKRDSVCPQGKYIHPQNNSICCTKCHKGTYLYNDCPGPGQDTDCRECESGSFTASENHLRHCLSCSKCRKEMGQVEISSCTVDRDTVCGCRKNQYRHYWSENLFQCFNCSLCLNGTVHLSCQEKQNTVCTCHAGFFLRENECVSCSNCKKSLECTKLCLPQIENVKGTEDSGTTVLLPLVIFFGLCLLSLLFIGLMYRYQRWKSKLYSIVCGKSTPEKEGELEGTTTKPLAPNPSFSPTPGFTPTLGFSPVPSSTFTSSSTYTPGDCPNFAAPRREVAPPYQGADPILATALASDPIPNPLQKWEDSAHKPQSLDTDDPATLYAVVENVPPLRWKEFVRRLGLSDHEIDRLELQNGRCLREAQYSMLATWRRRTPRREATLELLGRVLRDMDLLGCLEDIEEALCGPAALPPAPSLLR
As to the kind of experiment: ChEBML_224214. The text has this:
Inhibition of TNF-alpha-induced VCAM-1 expression

In turn, `COc1ccc(/C=C/C(=O)c2ccc(OC)cc2OC)cc1` [1-(2,4-Dimethoxy-phenyl)-3-(4-methoxy-phenyl)-propenone] returned an IC50 of 7 µM.

As to `COc1ccc(C(=O)/C=C/c2ccccc2)cc1` [1-(4-methoxyphenyl)-3-phenylprop-2-en-1-one (6)], the midpoint of inhibition, the IC50, lay at 14 µM. The figure for `COc1cc(OC)c(-c2cc3ccccc3s2)cc1/C=C/C(=O)c1ccc(OC(C)(C)C(=O)O)cc1` [2-{4-[(E)-3-(5-Benzo[b]thiophen-2-yl-2,4-dimethoxy-phenyl)-acryloyl]-phenoxy}-2-methyl-propionic acid] is 6 µM; for `COc1cc(OC(C)(C)C(=O)O)c(/C=C/C(=O)c2ccc(C(F)(F)F)cc2)cc1-c1cccs1` [2-{5-Methoxy-2-[(E)-3-oxo-3-(4-trifluoromethyl-phenyl)-propenyl]-4-thiophen-2-yl-phenoxy}-2-methyl-propionic acid] it is 4 µM; for `COc1ccc(C(=O)/C=C/c2ccccc2)cc1OC` [3',4'-dimethoxychalcone] it is 8 µM. For the compound `COc1ccc(C(=O)/C=C/c2ccc(OC)cc2OC)cc1` [3-(2,4-Dimethoxy-phenyl)-1-(4-methoxy-phenyl)-propenone], the IC50 is 29 µM. As to `COc1cc(OC)c(CCC(=O)c2cc(OC)c(OC)c(OC)c2)cc1Br` [3-(5-Bromo-2,4-dimethoxy-phenyl)-1-(3,4,5-trimethoxy-phenyl)-propan-1-one], the IC50 was over 50 µM. The compound `COc1ccc(Br)cc1CCC(=O)c1cc(OC)c(OC)c(OC)c1` [3-(5-Bromo-2-methoxy-phenyl)-1-(3,4,5-trimethoxy-phenyl)-propan-1-one] displayed a half-inhibitory concentration (IC50) of over 50 µM. The figure for `COc1cc(C(=O)/C=C/c2ccccc2)cc(OC)c1OC` [3-phenyl-1-(3,4,5-trimethoxyphenyl)prop-2-en-1-one] is 6 µM; for `CCOC(=O)c1ccc(COc2ccc(C(=O)/C=C/c3cc(-c4cccs4)ccc3OC)cc2OC)cc1` [4-{2-Methoxy-4-[(E)-3-(2-methoxy-5-thiophen-2-yl-phenyl)-acryloyl]-phenoxymethyl}-benzoic acid ethyl ester] it is 4 µM.

`COc1ccc(-c2cccs2)cc1/C=C/C(=O)c1ccc(OCc2ccc(C(=O)O)cc2)c(OC)c1` [4-{2-Methoxy-4-[(E)-3-(2-methoxy-5-thiophen-2-yl-phenyl)-acryloyl]-phenoxymethyl}-benzoic acid] displayed an IC50 of 5 µM. Compound `COc1ccc(-c2cccs2)cc1C=CC(=O)c1ccc(OCc2ccc(NC(=O)OC(C)(C)C)cc2)c(OC)c1` [(4-{2-Methoxy-4-[(E)-3-(2-methoxy-5-thiophen-2-yl-phenyl)-acryloyl]-phenoxymethyl}-phenyl)-carbamic acid tert-butyl ester] returned an IC50 of over 50 µM. Consider `O=C(/C=C/c1ccc(F)cc1)c1ccc(F)cc1` [(E)-1,3-Bis-(4-fluoro-phenyl)-propenone], for which the midpoint of inhibition, the IC50, lay at 25 µM.

On to `COc1cc(/C=C/C(=O)c2ccc3c(c2)OC(O)(O)O3)cc(-c2cccs2)c1OC` [(E)-1-(2,2-Dihydroxy-benzo[1,3]dioxol-5-yl)-3-(3,4-dimethoxy-5-thiophen-2-yl-phenyl)-propenone], for which half-maximal inhibition (IC50) was put at 1 µM. Regarding `COc1ccc(OC)c(C(=O)/C=C/c2cc(-c3cccs3)ccc2OC)c1` [(E)-1-(2,5-Dimethoxy-phenyl)-3-(2-methoxy-5-thiophen-2-yl-phenyl)-propenone], the IC50 is 2 µM. Compound `COc1ccc(-c2cccs2)cc1/C=C/C(=O)c1c(OC)cccc1OC` [(E)-1-(2,6-Dimethoxy-phenyl)-3-(2-methoxy-5-thiophen-2-yl-phenyl)-propenone] gave an IC50 of 3 µM.

Turning to `COc1ccc(/C=C/C(=O)c2ccc(OC)c(OC)c2)cc1` [(E)-1-(3',4'-Dimethoxyphenyl)-3-(4''-methoxyphenyl)prop-2-en-1-one], the midpoint of inhibition, the IC50, lay at 6 µM.

The compound `COc1cc(-c2cccc(C(C)=O)c2)ccc1C(=O)C=Cc1cc(OC)c(OC)c(OC)c1` [(E)-1-(3'-Acetyl-3-methoxy-biphenyl-4-yl)-3-(3,4,5-trimethoxy-phenyl)-propenone] gave an IC50 of 4 µM. The figure for `COc1ccc(-c2cccs2)cc1/C=C/C(=O)c1ccc(OC)c(OC)c1` [(E)-1-(3,4-Dimethoxy-phenyl)-3-(2-methoxy-5-thiophen-2-yl-phenyl)-propenone] is 3 µM; for `COc1ccc(C(=O)/C=C/c2ccc(-c3cccs3)cc2)cc1OC` [(E)-1-(3,4-Dimethoxy-phenyl)-3-(4-thiophen-2-yl-phenyl)-propenone] it is 12 µM. In turn, `COc1ccc(-c2cc(C)cs2)cc1/C=C/C(=O)c1ccc(OC)c(OC)c1` [(E)-1-(3,4-Dimethoxy-phenyl)-3-[2-methoxy-5-(4-methyl-thiophen-2-yl)-phenyl]-propenone] came in with an IC50 of 2 µM.

`COc1ccc(-c2ccc(C)s2)cc1/C=C/C(=O)c1ccc(OC)c(OC)c1` [(E)-1-(3,4-Dimethoxy-phenyl)-3-[2-methoxy-5-(5-methyl-thiophen-2-yl)-phenyl]-propenone]: the IC50 came out at 2 µM. This lies in the single-digit micromolar range. `COc1ccc(/C=C/C(=O)c2cc(C(C)(C)C)c(O)c(C(C)(C)C)c2)cc1` [(E)-1-(3,5-Di-tert-butyl-4-hydroxy-phenyl)-3-(4-methoxy-phenyl)-propenone]: the IC50 is over 50 µM. With `CC(C)(C)c1cc(C(=O)/C=C/c2ccccc2)cc(C(C)(C)C)c1O` [(E)-1-(3,5-Di-tert-butyl-4-hydroxy-phenyl)-3-phenyl-propenone], the IC50 was 47 µM. As to `COc1ccc(/C=C/C(=O)c2cc(C(C)(C)C)c(OC)c(C(C)(C)C)c2)cc1` [(E)-1-(3,5-Di-tert-butyl-4-methoxy-phenyl)-3-(4-methoxy-phenyl)-propenone], half-maximal inhibition (IC50) required 17 µM. `COc1c(C(C)(C)C)cc(C(=O)/C=C/c2ccccc2)cc1C(C)(C)C` [(E)-1-(3,5-Di-tert-butyl-4-methoxy-phenyl)-3-phenyl-propenone] had an IC50 of 9 µM.

As for `COc1cc(OC)cc(C(=O)/C=C/c2cc(-c3cccs3)ccc2OC)c1` [(E)-1-(3,5-Dimethoxy-phenyl)-3-(2-methoxy-5-thiophen-2-yl-phenyl)-propenone], the IC50 was 2 µM. The figure for `COc1ccc(-c2cc(C(=O)/C=C/c3cc(OC)c(OC)c(OC)c3)c(OC)cc2OC)c(OC)c1` [(E)-1-(4,6,2',4'-Tetramethoxy-biphenyl-3-yl)-3-(3,4,5-trimethoxy-phenyl)-propenone] is 3 µM; for `COc1cc(/C=C/C(=O)c2cc(OC)c(OCc3ccccc3)c(OC)c2)cc(Br)c1OC` [(E)-1-(4-Benzyloxy-3,5-dimethoxy-phenyl)-3-(3-bromo-4,5-dimethoxy-phenyl)-propenone] it is over 50 µM; for `O=C(/C=C/c1ccc(F)c(-c2cccs2)c1)c1ccc(F)cc1` [(E)-1-(4-Fluoro-phenyl)-3-(4-fluoro-3-thiophen-2-yl-phenyl)-propenone] it is 4 µM.

`COc1cc(C(=O)/C=C/c2cc(-c3cccs3)ccc2OC)ccc1O` [(E)-1-(4-Hydroxy-3-methoxy-phenyl)-3-(2-methoxy-5-thiophen-2-yl-phenyl)-propenone] displayed an IC50 of 7 µM. This IC50 is about 1.8-fold higher than that of the compound before.

For `COc1ccc(C(=O)/C=C/c2cc(-c3cccs3)ccc2OC)cc1` [(E)-1-(4-Methoxy-phenyl)-3-(2-methoxy-5-thiophen-2-yl-phenyl)-propenone], the IC50 came to 3 µM. Compared with the last compound, the IC50 is about 2.3-fold lower.

In turn, `COc1ccc(-c2cccs2)cc1/C=C/C(=O)c1ccc2c(c1)OCO2` [(E)-1-Benzo[1,3]dioxol-5-yl-3-(2-methoxy-5-thiophen-2-yl-phenyl)-propenone] yielded an IC50 of 4 µM. The figure for `COc1ccc(-c2cc(C)cs2)cc1/C=C/C(=O)c1ccc2c(c1)OCO2` [(E)-1-Benzo[1,3]dioxol-5-yl-3-[2-methoxy-5-(4-methyl-thiophen-2-yl)-phenyl]-propenone] is 4 µM.

`COc1ccc(-c2ccc(C)s2)cc1/C=C/C(=O)c1ccc2c(c1)OCO2` [(E)-1-Benzo[1,3]dioxol-5-yl-3-[2-methoxy-5-(5-methyl-thiophen-2-yl)-phenyl]-propenone] displayed an IC50 of 3 µM. `COCCOc1c(OC)cc(C(=O)/C=C/c2cc(OC)c(OC)c(OC)c2)cc1OC` [(E)-1-[3,5-Dimethoxy-4-(2-methoxy-ethoxy)-phenyl]-3-(3,4,5-trimethoxy-phenyl)-propenone] came in with an IC50 of 5 µM. Compared with the last compound, the IC50 is about 1.7-fold higher.

In the case of `COc1cc(/C=C/C(=O)c2cc(OC)c(OCc3cc(OC)c(OC)c(OC)c3)c(OC)c2)cc(OC)c1OC` [(E)-1-[3,5-Dimethoxy-4-(3,4,5-trimethoxy-benzyloxy)-phenyl]-3-(3,4,5-trimethoxy-phenyl)-propenone], the IC50 amounted to 3 µM. Take `COC1=C(c2c(OC)cc(C(=O)/C=C/c3cc(OC)c(OC)c(OC)c3)cc2OC)Oc2ccccc2O1` [(E)-1-[3,5-Dimethoxy-4-(3-methoxy-benzo[1,4]dioxin-2-yl)-phenyl]-3-(3,4,5-trimethoxy-phenyl)-propenone]: the concentration for half-maximal inhibition (IC50) turned out to be 2 µM.

`COc1ccc(COc2c(OC)cc(C(=O)/C=C/c3cc(OC)c(OC)c(OC)c3)cc2OC)cc1` [(E)-1-[3,5-Dimethoxy-4-(4-methoxy-benzyloxy)-phenyl]-3-(3,4,5-trimethoxy-phenyl)-propenone] registered an IC50 of 1 µM. With `COc1cc(/C=C/C(=O)c2cc(OC)c(OCc3cccs3)c(OC)c2)cc(OC)c1OC` [(E)-1-[3,5-Dimethoxy-4-(thiophen-2-ylmethoxy)-phenyl]-3-(3,4,5-trimethoxy-phenyl)-propenone], the IC50 is 3 µM. In turn, `COC1=C(c2ccc(C(=O)/C=C/c3cc(OC)c(OC)c(OC)c3)cc2OC)Oc2ccccc2O1` [(E)-1-[3-Methoxy-4-(3-methoxy-benzo[1,4]dioxin-2-yl)-phenyl]-3-(3,4,5-trimethoxy-phenyl)-propenone] displayed an IC50 of 4 µM.
